Reference: US20260325538A1, “THERAPY” (priority 2023, published 2026)

Assays:
[1] = tested on: Klebsiella pneumoniae Kpn St147 (NDM-1 and KPC-2); experiment: MIC determination of ceftazidime with zinc chelator and avibactam (checkerboard, broth microdilution); assay type: cell-based; settings: with CAZ and avibactam
Text: The fractional inhibitory concentration (FIC) is defined as the concentration that kills when used in combination with another agent divided by the concentration that has the same effect when used alone. The FIC index (FICI) for the combination of two agents is the sum of their individual FIC values. […] The European Committee for Antimicrobial Susceptibility Testing (EUCAST) of the European Society of Clinical Microbiology and Infectious Diseases (ESCMID) 2000 adopts the following definitions to determine the susceptibility of bacteria to an antimicrobial agent (see EUCAST Definitive Document E. Def 1.2: Terminology relating to methods for the determination of susceptibility of bacteria to antimicrobial agents. Clin. Microbiol. Infect. 2000; 6(9): 503-508): • FICI value≤0.5; synergy • 0.5<FICI value≤1; additive effect • 1<FICI value≤2; indifferent effect • FICI≥2; antagonistic effect
Antimicrobial susceptibility testing (AST) by broth microdilution was performed according to The European Committee on Antimicrobial Susceptibility Testing. Reading guide for broth microdilution. Version 4.0, 2022 (see: http://www.eucast.org).
Checkerboard 96-well plates (Corning 3788) were made by conducting serial two-fold dilutions of CAZ in cation-adjusted Mueller Hinton II broth (caMHB; Thermo Scientific, T3462), in columns across the microtiter plate (64-0.03 μg/ml). Additionally, avibactam was added to rows 3 to 8 in concentrations of 64, 16, 8, 4, 1 and 0.25 μg/ml, respectively. The zinc chelator was added to the wells of the plate, where applicable. […] The first row in all plates was used as a positive control for CAZ only, and the second row included the zinc chelator in addition to CAZ (no avibactam added to rows 1 or 2). The zinc chelator was added at the indicated concentration to rows 3-8 of plates 2 and 3.
The effect of the combination of zinc chelator/CAZ/avibactam was tested on a clinically isolated Klebsiella pneumoniae Kpn St147 actively constitutionally expressing the two resistance mechanisms NDM-1 and KPC-2 simultaneously. As a negative control, bacteria+CAZ was tested alone. As a positive control, bacteria+CAZ+zinc chelator was used. In Tables 3 and 4, concentrations (μg/ml) of CAZ are given in the top row left to right and avibactam concentrations (μg/ml) are given top to bottom in column 1.
ΣFICI=MICA(combination)/MICA (alone)+MICB(combination)/MICB (alone)+MICC(combination)/MICC (alone)

[2] = tested on: bacteria which rely on SBLs; settings: in combination with meropenem; cited from earlier work
[3] = tested on: Klebsiella pneumoniae K66-45 (NDM-1); experiment: Checkerboard MIC, fixed ratio of sBLI to antibiotic (Examples 3-6); assay type: cell-based; settings: caMHB 29.4 μM Zn2+
Text: The antibiotics and serine β-lactamase-inhibitors (sBLIs) were purchased from the following suppliers: Ceftazidime (CAZ): Sigma-Aldrich; Cefepime (FEP): Sigma-Aldrich; Cefpodoxime (CEFP): MedChemExpress; Sulbactam (SUL): Sigma-Aldrich Avibactam (AVI): Biosynth; Vaborbactam (VAB): ABCR; Tazobactam (TAZ): Sigma-Aldrich; Taniborbactam (TAN): Sigma-Aldrich.
In each of Examples 3-23, the compound of Example 26 of WO 2018/033719 was employed as the zinc chelator. The following abbreviations are used in these examples: sBLI means serine-β-lactamase inhibitor; CFU means colony-forming unit, which is a group of microbes that grows from a single cell on a petri plate; DMSO means dimethyl sulfoxide; MHB means Mueller-Hinton broth; caMHB means cation-adjusted Mueller-Hinton broth; MIC means minimum inhibitory concentration—the lower the MIC, the more efficient the combination against the respective bacterial strain.
General Protocol Used in Examples 3-10 Employing a Fixed Ratio of sBLI to Antibiotic within Each Experiment:
Antimicrobial susceptibility testing (AST) by broth microdilution (MIC determination) was performed according to The European Committee on Antimicrobial Susceptibility Testing (EUCAST) guidelines (see Reading guide for broth microdilution Version 5.0, 2024: https://www.eucast.org).
Sterile clear round bottom polystyrene (non-treated) 96-well microplates (Corning 3788) were used for making serial two-fold dilutions of the antibiotic and the serine sBLI in cation-adjusted Mueller Hinton II broth (caMHB; Thermo Scientific, T3462, containing 29.4 μM Zn^2+), across the columns of the microtiter plate ([…]; columns 1-12). The checkerboard plates were all made by keeping the sBLI at a fixed ratio relative to antibiotic (absolute concentrations of each, in μg/mL) to all wells containing sample in each plate. Additionally, a set of samples were included in each test plate, where the zinc chelator was added, at various fixed concentrations, of 16 μg/mL, 8 μg/mL and/or 4 μg/mL (as specified in each Example). All sample wells contained growth medium (caMHB), and inoculated bacteria at a final inoculum between 3-7×10^5 CFU/mL. […] Synergy for the triple combination (antibiotic, sBLI, and zinc chelator) was defined as when the MIC in rows containing the zinc chelator in combination with antibiotic and sBLI (triple combination), was lower than for rows containing antibiotic and sBLI (double combination; no zinc chelator).
(§1) Two technical replicates were performed for each sample. An X in rows 1-8 in the table indicates bacterial growth, while a blank cell indicates no growth. Concentrations (μg/mL) of CAZ are given in row 0a. Concentrations (μg/mL) of AVI are given in row 0b. The zinc chelator was added in fixed concentrations, at 16 μg/mL in rows 3 and 4, at 8 μg/mL in rows 5 and 6, and 4 μg/mL in rows 7 and 8. As a control, the effect of CAZ and AVI (no zinc chelator) was tested (rows 1 and 2). All wells contained bacterial growth medium (caMHB, 29.4 μM Zn^2+) and were inoculated with the test bacterium. The grey cells indicate the CAZ MIC.
as §1, with “FEP” for “CAZ”
Two technical replicates were performed for each sample. An X in rows 1-8 in the table indicates bacterial growth, while a blank cell indicates no growth. Concentrations (μg/mL) of FEP are given in row 0a. Concentrations (μg/mL) of SUL are given in row 0b. […]

In the case of `CN(C[C@H](O)[C@@H](O)[C@H](O)[C@H](O)CO)C(=O)c1ccc(CN(Cc2ccccn2)Cc2ccccn2)nc1` [zinc chelator], the “FICI Zinc Chelator” value ([1]; zinc chelator 8 μg/mL) is listed as 0.0039, the “FICI Zinc Chelator” value ([1]; zinc chelator 16 μg/mL) is listed as 0.0078 and the “effect of combination with meropenem” value [2] is listed as “no effect”. The “synergy with the zinc chelator” value ([3]; zinc chelator 4 μg/mL, with CAZ and AVI (fixed ratio)) was “variable synergy”, the “synergy with the zinc chelator” value ([3]; zinc chelator 4 μg/mL, with FEP and AVI (fixed ratio)) was “variable synergy” and the “synergy with the zinc chelator” value ([3]; zinc chelator 8 μg/mL, with CAZ and AVI (fixed ratio)) was “Synergy”. For the same molecule, the “synergy with the zinc chelator” value ([3]; zinc chelator 8 μg/mL, with FEP and AVI (fixed ratio)) was “Synergy”, the “synergy with the zinc chelator” value ([3]; zinc chelator 8 μg/mL, with FEP and SUL (fixed ratio)) was “Synergy” and the “synergy with the zinc chelator” value ([3]; zinc chelator 8 μg/mL, with FEP and TAZ (fixed ratio)) was “Synergy”. For the same molecule, the “synergy with the zinc chelator” value ([3]; zinc chelator 16 μg/mL, with CAZ and AVI (fixed ratio)) was “Synergy”, the “synergy with the zinc chelator” value ([3]; zinc chelator 16 μg/mL, with FEP and AVI (fixed ratio)) was “Synergy” and the “synergy with the zinc chelator” value ([3]; zinc chelator 16 μg/mL, with FEP and SUL (fixed ratio)) was “Synergy”. For the same molecule, the “synergy with the zinc chelator” value ([3]; zinc chelator 16 μg/mL, with FEP and TAZ (fixed ratio)) was “Synergy”.
